Measurements published in PMC10779950, “Binding Free Energy Calculation Based on the Fragment Molecular Orbital Method and Its Application in Designing Novel SHP-2 Allosteric Inhibitors” (International Journal of Molecular Sciences, 2024).

Legend:
[1] = test system: SHP-2; conditions: SHP-2 ligand set; experimental binding free energy; ref Schrödinger FEP+ benchmark; cited from earlier work
[2] = target: T1, SHP2^WT (1–593) (Homo sapiens, UniProt Q06124); assay: SHP-2 prompt fluorescence phosphatase assay (DiFMUP), SHP2^WT; type: biochemical; conditions: for inhibitory activity against SHP-2 (in words): Figure S4, DIFMUP substrate, mean ± SD (n = 3); for IC50: SHP2^WT, DiFMUP substrate, averages of three independent experiments, read-out: SHP-2 IC50; for ΔGexp: converted from IC50 with ΔGexp ≈ kBTlog IC50
T1 construct: made in house; host or cells: E. coli BL21 Star (DE3), pET30 vector
T1 sequence (Q06124 1-593): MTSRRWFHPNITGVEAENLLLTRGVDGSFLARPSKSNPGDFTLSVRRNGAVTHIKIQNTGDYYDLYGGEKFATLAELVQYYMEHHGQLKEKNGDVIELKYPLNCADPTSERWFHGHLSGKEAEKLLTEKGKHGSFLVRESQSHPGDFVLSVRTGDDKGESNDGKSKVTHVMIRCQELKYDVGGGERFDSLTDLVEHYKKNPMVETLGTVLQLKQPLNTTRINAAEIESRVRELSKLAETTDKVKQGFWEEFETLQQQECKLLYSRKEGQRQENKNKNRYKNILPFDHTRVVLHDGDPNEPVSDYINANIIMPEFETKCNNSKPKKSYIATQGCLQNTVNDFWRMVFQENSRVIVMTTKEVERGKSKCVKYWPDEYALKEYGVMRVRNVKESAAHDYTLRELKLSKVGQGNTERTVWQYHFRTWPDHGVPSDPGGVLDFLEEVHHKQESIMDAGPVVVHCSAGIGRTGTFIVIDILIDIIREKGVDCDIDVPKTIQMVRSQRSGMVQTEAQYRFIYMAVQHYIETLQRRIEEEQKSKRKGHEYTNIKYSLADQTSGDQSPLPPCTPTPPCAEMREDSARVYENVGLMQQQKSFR
Method: (§1) Briefly, the constructs were transformed into BL21 Star^TM (DE3) cells and cultured at 37 °C for 3~4 h. Subsequently, the cells with high expression of SHP2 protein were harvested after being induced by IPTG and grown overnight at 18 °C. Cell pellets were resuspended in lysis buffer (25 mM imidazole, 50 mM Tris−HCl, 500 mM NaCl, 2.5 mM MgCl2, 1 mM tris(2-carboxyethyl)phosphine (TCEP), 1 μg/mL DNase1, and complete EDTA-free protease inhibitor) and lysed using Low Temperature Ultrahigh Pressure Continuous Flow Cell Disrupter (JNBIO), followed by ultracentrifugation. The supernatant was collected. Then, the SHP2 was purified from the collected supernatant by using HisTrap HP chelation column, TEV protease, and HiTrap Q FastFlow column.
(§2) Then, the mixture was then incubated at 25 °C for 60 min. To initiate the reaction, the surrogate substrate DiFMUP (Invitrogen, cat. no. D6567, Shuzhou, China, 200 μM) was added and incubated at 25 °C for another 30 min. […] Fluorescence signal was detected using a microplate reader (Bio-Tek, Shanghai, China, Synergy2) at Ex/Em = 340/450 nm. Using control-based normalization, normalized IC50 regression curves were fitted to inhibitor dose response curves.

[3] = target: T2, SHP2^PTP (237–529) (Homo sapiens, UniProt Q06124); assay: SHP-2 prompt fluorescence phosphatase assay (DiFMUP), SHP2^PTP; type: biochemical; conditions: catalytic PTP domain construct
T2 construct: made in house; host or cells: E. coli BL21 Star (DE3), pET30 vector
T2 sequence (Q06124 237-529): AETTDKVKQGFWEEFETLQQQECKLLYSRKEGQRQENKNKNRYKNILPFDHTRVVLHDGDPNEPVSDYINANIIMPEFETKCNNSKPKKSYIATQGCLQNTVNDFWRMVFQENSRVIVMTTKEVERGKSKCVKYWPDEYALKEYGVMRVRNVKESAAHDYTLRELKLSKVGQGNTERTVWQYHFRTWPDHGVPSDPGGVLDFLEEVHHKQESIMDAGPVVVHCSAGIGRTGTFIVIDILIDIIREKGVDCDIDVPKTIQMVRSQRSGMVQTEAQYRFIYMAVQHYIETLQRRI
Method: as §1, §2

[4] = test system: THR-β; assay: Experimental THR-β activity of agonists taken from Hu et al.; type: biochemical; conditions: Table S4, converted from the experimental value
Text: In the initial phase of our investigation, we conducted a retrospective evaluation of FMOScore’s performance concerning thyroid hormone receptor β (THR-β) agonists, using a set of 18 compounds taken from the work of Hu et al. [65]

[5] = test system: c-Met; design: method as in earlier work; conditions: Schrödinger FEP+ benchmark; cited from earlier work
[6] = test system: c-Met; design: method as in earlier work; conditions: FEP+ predicted ΔG from the benchmark; cited from earlier work
[7] = test system: HIF-2α; conditions: experimental binding free energy, ref Schrödinger FEP+ benchmark; cited from earlier work
[8] = test system: SYK; conditions: experimental binding free energy, ref Schrödinger FEP+ benchmark; cited from earlier work
[9] = test system: SYK; design: method as in Schrödinger FEP+ benchmark; conditions: FEP+ predicted binding free energy, ref Schrödinger FEP+ benchmark; cited from earlier work
[10] = test system: TNKS2; conditions: experimental binding free energy, ref Schrödinger FEP+ benchmark; cited from earlier work
[11] = test system: TNKS2; design: method as in Schrödinger FEP+ benchmark; conditions: FEP+ predicted binding free energy, ref Schrödinger FEP+ benchmark; cited from earlier work

SMILES	Exp. ΔG [1] [kcal/mol]	inhibitory activity against SHP-2 (in words) [2]	IC50 [2] [µM]	ΔGexp [2] [kcal/mol]	fold decrease of biochemical inhibition compared to SHP099 ([2]; ratio of IC50) [fold]	IC50 [3] [µM]	ΔGexp [4] [kcal/mol]	Exp. ΔG [5] [kcal/mol]	FEP [6] [kcal/mol]	Exp. ΔG [7] [kcal/mol]	Exp. ΔG [8] [kcal/mol]	FEP [9] [kcal/mol]	Exp. ΔG [10] [kcal/mol]	FEP [11] [kcal/mol]	fold reduced inhibition on morphing the piperazine ring (relative to compound 1) ([2]; ratio of IC50) [fold]
O=[N+]([O-])c1cc(Br)cnc1Sc1cccc(Cl)c1Cl [Compound S4]	-5.82														
CC1(N)CCN(c2cnc(-c3cccc(Cl)c3Cl)c(N)c2)CC1 [Compound 1, 5-(4-amino-4-methylpiperidin-1-yl)-2-(2,3-dichlorophenyl) pyridin-3-amine]		potent inhibitory activity	1.49 ± 0.024	-7.943	16	> 100	-8.186	-9.14	-9.88	-11.32	-12.39	-12.21			
CC1(N)CCN(c2cnc(Sc3cccc(Cl)c3Cl)c(N)c2)CC1 [Compound 7, 5-(4-amino-4-methylpiperidin-1-yl)-2-((2,3-dichlorophenyl)thio)pyridin-3-amine]			11.3 ± 1.19	-6.747			-7.406	-8.73	-9.19		-10.79	-10.29	-8.4	-9.01	
Nc1cc(N2CCC3(CCCC3N)CC2)cnc1Sc1cccc(Cl)c1Cl (stereo not shown) [Compound 8, 8-(5-amino-6-((2,3-dichlorophenyl)thio)pyridin-3-yl)-8-azaspiro[4.5]decan-1-amine]		potent inhibitory activity	2.29 ± 0.66	-7.690			-8.072	-10.06	-9.12		-9.78	-10.6			
Nc1cc(NCC2CCCNC2)cnc1-c1cccc(Cl)c1Cl (stereo not shown) [Compound 2, 2-(2,3-dichlorophenyl)-N5-(piperidin-3-ylmethyl) pyridine-3,5-diamine]			15.6 ± 1.49	-6.553			-6.110	-11.25	-11.93		-11.01	-10.49			10
